Reference: the NIST ThermoML archive (doi:10.1016/j.jct.2013.12.033)
Numbers after ± are expanded uncertainties.

Conditions: Liquid, Closed cell (Static) method

With c1ccncc1 [pyridine] the “vapor or sublimation pressure” value (273.15 K) was 0.5993 ± 0.037 kPa, the “vapor or sublimation pressure” value (283.15 K) was 1.136 ± 0.071 kPa and the “vapor or sublimation pressure” value (293.15 K) was 2.049 ± 0.12 kPa. For the same compound, the “vapor or sublimation pressure” value (303.15 K) was 3.535 ± 0.21 kPa, the “vapor or sublimation pressure” value (313.15 K) was 5.863 ± 0.35 kPa and the “vapor or sublimation pressure” value (323.15 K) was 9.383 ± 0.56 kPa. For the same compound, the “vapor or sublimation pressure” value (333.15 K) was 14.55 ± 0.88 kPa, the “vapor or sublimation pressure” value (343.15 K) was 21.92 ± 1.3 kPa and the “vapor or sublimation pressure” value (353.15 K) was 32.17 ± 1.9 kPa. The “vapor or sublimation pressure” value (363.15 K) was 46.13 ± 2.8 kPa.
With c1ccsc1 [thiophene] the “vapor or sublimation pressure” value (273.15 K) was 2.778 ± 0.17 kPa, the “vapor or sublimation pressure” value (283.15 K) was 4.893 ± 0.29 kPa and the “vapor or sublimation pressure” value (293.15 K) was 8.217 ± 0.49 kPa. The “vapor or sublimation pressure” value (303.15 K) was 13.23 ± 0.8 kPa, the “vapor or sublimation pressure” value (313.15 K) was 20.52 ± 1.2 kPa and the “vapor or sublimation pressure” value (323.15 K) was 30.8 ± 1.9 kPa. For the same compound, the “vapor or sublimation pressure” value (333.15 K) was 44.88 ± 2.7 kPa, the “vapor or sublimation pressure” value (343.15 K) was 63.71 ± 3.8 kPa and the “vapor or sublimation pressure” value (353.15 K) was 88.33 ± 5.3 kPa. For the same compound, the “vapor or sublimation pressure” value (363.15 K) was 119.9 ± 7.2 kPa.
